Measurements taken from patent US5258383A, “DC-89 derivatives” (priority 1991, dated 1993).

Legend:
melanoma B-16 = conditions: against melanoma B-16; cited from earlier work
various bacteria = conditions: against various bacteria / a variety of bacteria; cited from earlier work
Sarcoma 180 tumor = experiment: Therapeutic Effect against Sarcoma 180 Tumor; format: in vivo, male ddY-strain mice; conditions: intravenous, single administration one day after implantation, determined seven days after implantation
Protocol: Five male ddY-strain mice each weighing 18 to 20 g were used for each group as test animals, and 5×10^5 Sarcoma 180 tumor cells were implanted subcutaneously into the animals at the axilla. One day after the implantation, 0.2 ml of physiological saline containing Compound (I) at the concentration indicated in Table 2 was intravenously administered to each mouse. T/C [T: average tumor volume (mm^3) of the group treated with the test compound, C: average tumor volume (mm^3) of the control group which received an intravenous administration of 0.2 ml of physiological saline]was determined seven days after the implant

ddY-strain male mice = experiment: Acute Toxicity Test; format: in vivo; conditions: intravenous; mortality observed for 14 days
Protocol: A test compound was intravenously administered to ddY-strain male mice each weighing 20±1 g. MLD (the minimum lethal dose) was determined by observing the mortality for 14 days after the administration.

HeLaS3 cells = experiment: Growth Inhibitory Effect against HeLaS3 Cells; format: cell-based; conditions: Homo sapiens, HeLa S3; 72 hours, Neutral Red staining
Protocol: HeLaS3 cells were suspended in a medium comprising MEM medium, 10% fetal calf serum and 2 mM glutamine (hereinafter referred to as medium A) to a concentration of 3×10^4 cells/ml. The cell suspension thus prepared was put into wells of a 96-well microtiter plate in an amount of 0.1 ml per well. After incubation at 37° C. for 20 hours in a CO2 incubator, Compound (I) appropriately diluted with medium A was added to each well in an amount of 0.05 ml.
The cells were further cultured at 37° C. for 72 hours in the CO2 -incubator and the culture supernatant was removed. After the residue was washed once with phosphate buffer saline (PBS), a medium comprising medium A and 0.02% Neutral Red was added in an amount of 0.1 ml per well. Then, the cells were cultured at 37° C. for one hour in the CO2 -incubator, whereby the cells were stained. After removal of the culture supernatant, the residue was washed once with physiological saline. The pigment was extracted with 0.001N hydrochloric acid/30% ethanol and the absorbance of the extract was measured at 550 nm using a microplate reader. The concentration of the test compound at which the growth of the cells is inhibited by 50% (IC50) was calculated by comparing the absorbance of untreated cells with those of the cells treated with the test compound at known concentrations.

SMILES	antitumor activity (melanoma B-16)	antibacterial activity (various bacteria)	Acute Toxicity (MLD), minimum lethal dose (ddY-strain male mice)	other results
COC(=O)C1(C)Nc2c(O)cc3c(c2C1=O)CC(Br)CN3C(=O)c1cc2cc(OC)c(OC)c(OC)c2[nH]1 (stereo not shown) [DC-89B1]	show an antitumor activity against melanoma B-16	exhibit an antibacterial activity against various bacteria	–	–
COC(=O)c1c(C)[nH]c2c(OC(=O)N3CCN(CC(=O)NC(C)C)CC3)cc3c(c12)C(CBr)CN3C(=O)/C=C/c1ccc(OC)cc1 (stereo not shown) [Compound 11]	–	–	> 8.0 mg/kg	T/C (average tumor volume treated / control) (Sarcoma 180 tumor; 8.0 mg/kg): 0.12
COC(=O)c1c(C)[nH]c2c(OC(=O)N(C)C)cc3c(c12)C(CBr)CN3C(=O)/C=C/c1ccc(OC)cc1 (stereo not shown) [Compound 3]	–	–	> 8.0 mg/kg	IC50 (HeLaS3 cells): 11 nM; T/C (average tumor volume treated / control) (Sarcoma 180 tumor; 8.0 mg/kg): 0.027
COC(=O)c1c(C)[nH]c2c(OC(=O)N3CCN(C)CC3)cc3c(c12)C(CBr)CN3C(=O)/C=C/c1ccc(OC)cc1 (stereo not shown) [Compound 7]	–	–	8.0 mg/kg	T/C (average tumor volume treated / control) (Sarcoma 180 tumor; 4.0 mg/kg): 0.20
COC(=O)C1(C)Nc2c(O)cc3c(c2C1=O)C(CCl)CN3C(=O)c1cc2cc(OC)c(OC)c(OC)c2[nH]1 (stereo not shown) [DC-89A2]	show an antitumor activity against melanoma B-16	exhibit an antibacterial activity against various bacteria	–	–
COC(=O)C1(C)Nc2c(O)cc3c(c2C1=O)CC(Cl)CN3C(=O)c1cc2cc(OC)c(OC)c(OC)c2[nH]1 (stereo not shown) [DC-89Al]	show an antitumor activity against melanoma B-16	exhibit an antibacterial activity against various bacteria	–	–
COC(=O)c1c(C)[nH]c2c1C13CC1CN(C(=O)/C=C/c1ccc(OC)cc1)C3=CC2=O (stereo not shown) [Compound 2]	–	–	2.0 mg/kg	IC50 (HeLaS3 cells): 0.18 nM
COC(=O)C1(C)Nc2c(O)cc3c(c2C1=O)C(CBr)CN3C(=O)c1cc2cc(OC)c(OC)c(OC)c2[nH]1 (stereo not shown) [DC-89B2]	show an antitumor activity against melanoma B-16	exhibit an antibacterial activity against various bacteria	–	–
COC(=O)c1cc2c([nH]1)C(=O)C=C1N(C(=O)c3cc4cc(OC)c(OC)c(OC)c4[nH]3)CC3CC123 (stereo not shown) [DC113]	exhibit an anti-tumor activity against melanoma B-16	show an antibacterial activity against a variety of bacteria	–	–
COC(=O)c1c(C)[nH]c2c(OC(=O)Nc3ccccc3)cc3c(c12)C(CBr)CN3C(=O)/C=C/c1ccc(OC)cc1 (stereo not shown) [Compound 12]	–	–	2.0 mg/kg	T/C (average tumor volume treated / control) (Sarcoma 180 tumor; 2.0 mg/kg): 0.25
COC(=O)c1c(C)[nH]c2c(OC(=O)N3CCCC3)cc3c(c12)C(CBr)CN3C(=O)/C=C/c1ccc(OC)cc1 (stereo not shown) [Compound 5]	–	–	> 8.0 mg/kg	–
COC(=O)c1c(C)[nH]c2c(OC(=O)N3CCC(N4CCCCC4)CC3)cc3c(c12)C(CBr)CN3C(=O)/C=C/c1ccc(OC)cc1 (stereo not shown) [Compound 9]	–	–	4.0 mg/kg	T/C (average tumor volume treated / control) (Sarcoma 180 tumor; 4.0 mg/kg): 0.17
COC(=O)c1c(C)[nH]c2c(OC(=O)N3CCCCC3)cc3c(c12)C(CBr)CN3C(=O)/C=C/c1ccc(OC)cc1 (stereo not shown) [Compound 4]	–	–	> 8.0 mg/kg	IC50 (HeLaS3 cells): < 0.24 nM
COC(=O)C1(C)NC2=C(C1=O)C13CC1CN(C(=O)c1cc4cc(OC)c(OC)c(OC)c4[nH]1)C3=CC2=O (stereo not shown) [DC-88A]	exhibit an anti-tumor activity against melanoma B-16	show an antibacterial activity against a variety of bacteria	–	–
